In this experiment the target is Somatostatin receptor type 2 (Homo sapiens, UniProt P30874). The experiment in a line: Binding affinity to human SST2 receptor.

One may read the Kd as the equilibrium constant for the complex coming apart.

Chain of Somatostatin receptor type 2 (P30874 whole entry): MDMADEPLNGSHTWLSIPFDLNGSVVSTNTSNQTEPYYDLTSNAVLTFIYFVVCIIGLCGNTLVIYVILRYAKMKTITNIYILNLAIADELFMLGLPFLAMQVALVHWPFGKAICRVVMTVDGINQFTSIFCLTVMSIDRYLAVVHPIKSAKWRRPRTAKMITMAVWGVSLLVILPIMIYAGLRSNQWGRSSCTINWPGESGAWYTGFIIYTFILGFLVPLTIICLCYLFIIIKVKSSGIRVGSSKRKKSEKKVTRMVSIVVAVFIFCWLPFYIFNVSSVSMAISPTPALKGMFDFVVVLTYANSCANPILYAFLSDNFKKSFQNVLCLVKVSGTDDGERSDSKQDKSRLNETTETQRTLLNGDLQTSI

As for `C[C@@H](O)[C@H](CO)NC(=O)[C@@H]1CSSC[C@H](NC(=O)[C@H](N)Cc2ccccc2)C(=O)N[C@@H](Cc2ccccc2)C(=O)N[C@H](Cc2c(C(F)(F)F)[nH]c3ccccc23)C(=O)N[C@@H](CCCCN)C(=O)N[C@@H]([C@@H](C)O)C(=O)N1`, binding was characterised by a dissociation constant (Kd) of 15.5 nM.

The values are drawn from ChEMBL document CHEMBL3853328, “A molecular dynamics simulation investigation of the relative stability of the cyclic peptide octreotide and its deprotonated and its (CF3)-Trp substituted analogs in different solvents” (Bioorg Med Chem, 2016).
